The results in this text go back to ChEMBL document CHEMBL1212923, “Synthesis and in vivo evaluation of phenethylpiperazine amides: selective 5-hydroxytryptamine(2A) receptor antagonists for the treatment of insomnia” (J Med Chem, 2010).

SMILES strings stand for the structures. The source made the active and inactive calls. The rule behind the calls is not given here. Some results are limits rather than exact numbers.

Series [1] concerns Rattus norvegicus. As to the kind of experiment: Effect on behavioral activity in Sprague-Dawley rat assessed as increase in deep sleep at 0.1 mg/kg, po after 1 hr. Also on record: dose 0.1 mg/kg. The format is functional, organism-based.
Series [2] can be described thus: Half life in Sprague-Dawley rat at 10 mg/kg, po. The settings on record: in vivo. Set-up: dose 10 mg/kg, route oral. The format is ADME, organism-based.
The target of a further series is T1, Cytochrome P450 1A2 (Homo sapiens, UniProt P05177).
T1 sequence (P05177 whole entry): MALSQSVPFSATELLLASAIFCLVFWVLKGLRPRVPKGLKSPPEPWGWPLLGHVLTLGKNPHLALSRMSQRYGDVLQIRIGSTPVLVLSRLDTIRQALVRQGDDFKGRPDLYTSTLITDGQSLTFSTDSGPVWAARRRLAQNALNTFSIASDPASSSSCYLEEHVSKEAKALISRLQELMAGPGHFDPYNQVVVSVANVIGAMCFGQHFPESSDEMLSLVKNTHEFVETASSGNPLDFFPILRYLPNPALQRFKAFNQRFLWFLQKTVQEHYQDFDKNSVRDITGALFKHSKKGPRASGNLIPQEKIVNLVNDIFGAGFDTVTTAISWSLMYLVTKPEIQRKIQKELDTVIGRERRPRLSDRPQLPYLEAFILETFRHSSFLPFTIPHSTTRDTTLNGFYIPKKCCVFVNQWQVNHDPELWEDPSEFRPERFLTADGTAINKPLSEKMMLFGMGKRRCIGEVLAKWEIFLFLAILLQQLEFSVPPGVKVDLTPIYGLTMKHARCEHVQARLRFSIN
As to the kind of experiment: Inhibition of CYP1A2 in human liver microsomes. In kind it is ADME, Microsome.

The subject of series [3] is Rattus norvegicus. As to the kind of experiment: Effect on behavioral activity in po dosed Sprague-Dawley rat assessed as increase in sleep consolidation after 5 hrs. In kind it is functional, organism-based.
The subject of series [4] is Rattus norvegicus. As to the kind of experiment: Inhibition of DOI-induced hypolocomotion in Sprague-Dawley rat at 3 mg/kg, po administered 25 mins before DOI challenge measured after 10 mins. In kind it is functional.
Series [5] in a line: Cmax in Sprague-Dawley rat at 10 mg/kg, po. The format is ADME, organism-based. Also on record: dose 10 mg/kg, route oral. The settings on record: in vivo.
A short description of series [6]: Oral bioavailability in Sprague-Dawley rat at 10 mg/kg relative to 2 mg/kg, iv dose. The format is ADME, organism-based. Conditions: in vivo.
The test system of series [7] is Rattus norvegicus. In words: Volume of distribution at steady state in Sprague-Dawley rat at 10 mg/kg, po. In kind it is ADME, organism-based. Conditions: in vivo. Also on record: dose 10 mg/kg, route oral.
Series [8] in a line: AUClast in Sprague-Dawley rat at 10 mg/kg, po. The format is ADME, organism-based. Also on record: time 0 - last, dose 10 mg/kg, route oral. Conditions: plasma.
Series [9] can be described thus: Total clearance in Sprague-Dawley rat at 2 mg/kg, iv. In kind it is ADME, organism-based. Set-up: dose 2 mg/kg, route intravenous. The settings on record: in vivo.
The next series concerns the target Cytochrome P450 2C19 (Homo sapiens, UniProt P33261). In words: Inhibition of CYP2C19 in human liver microsomes. The format is ADME, Microsome. For orientation: Liver microsomes are a subcellular fraction often used to study metabolism.
For the next series, the target named is Cytochrome P450 3A4 (Homo sapiens, UniProt P08684). As to the kind of experiment: Inhibition of CYP3A4 in human liver microsomes. In kind it is ADME, Microsome.
For the next series, the target named is Cytochrome P450 2D6 (Homo sapiens, UniProt P10635). As to the kind of experiment: Inhibition of CYP2D6 in human liver microsomes. The format is ADME, Microsome.
Series [10] is described as follows: Drug level in Sprague-Dawley rat plasma at 0.3 mg/kg, po after 0.75 hrs. In kind it is ADME, organism-based. Also on record: dose 0.3 mg/kg, route oral. Conditions: read-out: Drug uptake.
The target in series [11] is T2, 5-hydroxytryptamine receptor 2C (Homo sapiens, UniProt P28335).
T2 sequence (P28335 whole entry): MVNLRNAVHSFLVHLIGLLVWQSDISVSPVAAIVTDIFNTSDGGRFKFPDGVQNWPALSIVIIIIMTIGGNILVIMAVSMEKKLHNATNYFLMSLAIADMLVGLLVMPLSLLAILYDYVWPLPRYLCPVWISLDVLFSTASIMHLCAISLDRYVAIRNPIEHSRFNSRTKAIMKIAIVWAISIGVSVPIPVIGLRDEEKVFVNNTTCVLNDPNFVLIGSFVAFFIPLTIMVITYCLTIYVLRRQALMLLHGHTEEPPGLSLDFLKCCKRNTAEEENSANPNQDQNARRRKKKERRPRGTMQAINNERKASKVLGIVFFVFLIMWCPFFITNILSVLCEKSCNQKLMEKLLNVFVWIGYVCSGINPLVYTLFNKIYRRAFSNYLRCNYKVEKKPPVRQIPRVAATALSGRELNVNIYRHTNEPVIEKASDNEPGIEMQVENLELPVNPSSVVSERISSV
The format is cell-based, HEK293.

Series [12] deals with Rattus norvegicus. In words: Inhibition of DOI-induced hypolocomotion in po dosed Sprague-Dawley rat administered 25 mins before DOI challenge measured after 10 mins. The format is functional, organism-based.
Series [13] has as its system Rattus norvegicus. As to the kind of experiment: Inhibition of DOI-induced hypolocomotion in Sprague-Dawley rat at 1 mg/kg, po administered 25 mins before DOI challenge measured after 10 mins. The format is functional.
Series [14] in a line: Drug level in Sprague-Dawley rat brain at 0.3 mg/kg, po after 0.75 hrs. The settings on record: read-out: Drug uptake. Also on record: dose 0.3 mg/kg, route oral. In kind it is ADME, organism-based.
Series [15] concerns Rattus norvegicus. As to the kind of experiment: Effect on behavioral activity in Sprague-Dawley rat assessed as increase in deep sleep at 0.1 mg/kg, po after 3 to 4 hrs. In kind it is functional, organism-based. Set-up: dose 0.1 mg/kg.
Series [16] can be described thus: Half life in rat liver microsomes. In kind it is ADME, Microsome.
In a further series the target is Cytochrome P450 2C9 (Homo sapiens, UniProt P11712). As to the kind of experiment: Inhibition of CYP2C9 in human liver microsomes. The format is ADME, Microsome.
The subject of series [17] is Rattus norvegicus. As to the kind of experiment: Hepatic blood flow in Sprague-Dawley rat at 10 mg/kg, po. The format is ADME, organism-based, Liver. Also on record: dose 10 mg/kg, route oral. Conditions: in vivo.
Series [18] concerns the target 5-hydroxytryptamine receptor 2A (Homo sapiens, UniProt P28223). As to the kind of experiment: biochemical.
Description: Displacement of [125I]DOI from human recombinant 5HT2A receptor expressed in HEK293 cells after 1 hr by scintillation counting
For another series, the target named is hERG (KCNH2) (Homo sapiens, UniProt Q12809). In words: Inhibition of human ERG at 3 uM by patch clamp electrophysiology assay. In general terms: The patch-clamp technique gives a direct electrical read-out from membranes.
A short description of series [19]: Drug level in Sprague-Dawley rat plasma at 3 mg/kg, po after 0.75 hrs. In kind it is ADME, organism-based. Also on record: dose 3 mg/kg, route oral. The settings on record: read-out: Drug uptake.
Series [20] in a line: Drug level in Sprague-Dawley rat brain at 3 mg/kg, po after 0.75 hrs. The format is ADME, organism-based. Set-up: dose 3 mg/kg, route oral. Conditions: read-out: Drug uptake.
Series [21] is described as follows: Ratio of drug level in brain to plasma in Sprague-Dawley rat at 3 mg/kg, po after 0.75 hrs. In kind it is ADME, organism-based. Set-up: dose 3 mg/kg, route oral.

Chain of 5-hydroxytryptamine receptor 2A (P28223 whole entry): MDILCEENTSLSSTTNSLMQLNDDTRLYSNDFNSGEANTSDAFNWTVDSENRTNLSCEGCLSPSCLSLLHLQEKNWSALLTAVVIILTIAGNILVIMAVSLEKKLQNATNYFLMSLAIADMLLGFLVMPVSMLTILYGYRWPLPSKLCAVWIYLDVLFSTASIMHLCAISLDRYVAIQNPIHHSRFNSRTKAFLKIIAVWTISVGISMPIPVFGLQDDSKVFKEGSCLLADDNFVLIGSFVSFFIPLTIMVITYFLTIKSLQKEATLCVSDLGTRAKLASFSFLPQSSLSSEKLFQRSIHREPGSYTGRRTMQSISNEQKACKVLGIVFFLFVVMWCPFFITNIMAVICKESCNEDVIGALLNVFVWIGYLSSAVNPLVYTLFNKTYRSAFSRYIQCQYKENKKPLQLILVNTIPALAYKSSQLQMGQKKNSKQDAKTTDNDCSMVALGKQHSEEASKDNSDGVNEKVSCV
Chain of hERG (KCNH2) (Q12809 whole entry): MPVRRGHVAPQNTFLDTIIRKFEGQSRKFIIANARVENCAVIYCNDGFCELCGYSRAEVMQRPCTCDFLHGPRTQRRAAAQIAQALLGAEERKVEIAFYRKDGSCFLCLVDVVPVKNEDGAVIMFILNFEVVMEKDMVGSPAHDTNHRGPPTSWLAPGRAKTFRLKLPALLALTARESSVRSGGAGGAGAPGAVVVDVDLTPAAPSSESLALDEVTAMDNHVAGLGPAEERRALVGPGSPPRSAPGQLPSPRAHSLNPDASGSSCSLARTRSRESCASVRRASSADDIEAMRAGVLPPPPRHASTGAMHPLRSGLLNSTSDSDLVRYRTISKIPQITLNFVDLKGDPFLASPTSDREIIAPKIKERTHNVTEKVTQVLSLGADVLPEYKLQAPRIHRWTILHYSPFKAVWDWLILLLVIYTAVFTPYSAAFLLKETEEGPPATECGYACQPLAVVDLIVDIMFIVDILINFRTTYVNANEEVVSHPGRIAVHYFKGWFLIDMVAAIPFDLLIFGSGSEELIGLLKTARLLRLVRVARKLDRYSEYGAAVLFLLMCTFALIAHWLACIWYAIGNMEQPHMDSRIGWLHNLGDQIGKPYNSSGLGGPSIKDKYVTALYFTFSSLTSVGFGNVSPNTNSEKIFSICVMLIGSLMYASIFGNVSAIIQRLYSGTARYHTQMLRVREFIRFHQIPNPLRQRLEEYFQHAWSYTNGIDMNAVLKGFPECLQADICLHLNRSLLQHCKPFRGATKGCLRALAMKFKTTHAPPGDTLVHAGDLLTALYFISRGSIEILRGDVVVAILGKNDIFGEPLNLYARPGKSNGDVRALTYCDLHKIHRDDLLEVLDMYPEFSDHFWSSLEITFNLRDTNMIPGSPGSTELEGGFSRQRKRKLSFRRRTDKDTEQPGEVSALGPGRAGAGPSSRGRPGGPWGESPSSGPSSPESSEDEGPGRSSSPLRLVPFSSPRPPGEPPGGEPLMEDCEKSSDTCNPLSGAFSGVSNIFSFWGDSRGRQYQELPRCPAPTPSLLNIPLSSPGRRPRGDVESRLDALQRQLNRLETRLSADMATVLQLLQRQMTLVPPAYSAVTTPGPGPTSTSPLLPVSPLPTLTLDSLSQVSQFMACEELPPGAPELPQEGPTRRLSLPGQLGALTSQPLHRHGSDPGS
Chain of Cytochrome P450 2C9 (P11712 whole entry): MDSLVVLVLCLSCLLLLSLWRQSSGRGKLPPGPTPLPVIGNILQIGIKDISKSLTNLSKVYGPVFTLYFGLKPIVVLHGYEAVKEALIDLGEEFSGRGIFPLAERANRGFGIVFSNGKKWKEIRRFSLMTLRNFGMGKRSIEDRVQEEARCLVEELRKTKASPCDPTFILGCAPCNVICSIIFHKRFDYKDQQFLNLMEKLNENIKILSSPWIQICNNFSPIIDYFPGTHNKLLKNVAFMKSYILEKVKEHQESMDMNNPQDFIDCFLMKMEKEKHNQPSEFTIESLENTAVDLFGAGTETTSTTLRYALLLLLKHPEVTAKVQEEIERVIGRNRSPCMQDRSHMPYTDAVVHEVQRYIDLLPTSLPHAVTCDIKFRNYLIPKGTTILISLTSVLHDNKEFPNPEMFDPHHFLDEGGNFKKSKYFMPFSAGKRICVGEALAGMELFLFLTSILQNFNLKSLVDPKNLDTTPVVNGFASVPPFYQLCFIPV
Chain of Cytochrome P450 2D6 (P10635 whole entry): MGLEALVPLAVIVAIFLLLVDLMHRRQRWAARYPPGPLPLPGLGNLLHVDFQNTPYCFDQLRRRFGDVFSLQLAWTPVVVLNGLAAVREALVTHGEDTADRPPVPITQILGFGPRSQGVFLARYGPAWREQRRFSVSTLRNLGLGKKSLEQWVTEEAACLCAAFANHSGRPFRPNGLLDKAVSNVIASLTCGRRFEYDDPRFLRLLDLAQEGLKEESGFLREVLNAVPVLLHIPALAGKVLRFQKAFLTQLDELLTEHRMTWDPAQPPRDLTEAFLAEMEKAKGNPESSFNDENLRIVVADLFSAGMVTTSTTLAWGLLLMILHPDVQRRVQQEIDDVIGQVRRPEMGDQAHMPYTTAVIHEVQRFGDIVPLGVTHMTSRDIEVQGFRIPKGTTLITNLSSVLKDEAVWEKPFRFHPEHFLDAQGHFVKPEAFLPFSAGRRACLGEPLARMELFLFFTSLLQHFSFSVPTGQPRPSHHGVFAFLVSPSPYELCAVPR
Chain of Cytochrome P450 2C19 (P33261 whole entry): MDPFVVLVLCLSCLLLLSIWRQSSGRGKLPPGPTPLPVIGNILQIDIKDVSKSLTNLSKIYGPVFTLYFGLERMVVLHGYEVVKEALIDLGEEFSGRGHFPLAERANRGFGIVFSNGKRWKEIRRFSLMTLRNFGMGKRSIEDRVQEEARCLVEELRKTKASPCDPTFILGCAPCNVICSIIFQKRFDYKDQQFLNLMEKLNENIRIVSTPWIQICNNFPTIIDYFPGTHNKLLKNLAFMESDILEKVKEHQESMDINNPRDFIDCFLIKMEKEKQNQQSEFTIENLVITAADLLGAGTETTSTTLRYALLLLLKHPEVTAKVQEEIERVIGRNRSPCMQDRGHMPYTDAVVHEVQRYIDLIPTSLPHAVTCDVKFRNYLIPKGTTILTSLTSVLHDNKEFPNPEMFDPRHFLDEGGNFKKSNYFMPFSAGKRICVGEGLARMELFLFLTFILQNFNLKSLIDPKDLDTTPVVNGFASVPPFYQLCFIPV
Chain of Cytochrome P450 3A4 (P08684 whole entry): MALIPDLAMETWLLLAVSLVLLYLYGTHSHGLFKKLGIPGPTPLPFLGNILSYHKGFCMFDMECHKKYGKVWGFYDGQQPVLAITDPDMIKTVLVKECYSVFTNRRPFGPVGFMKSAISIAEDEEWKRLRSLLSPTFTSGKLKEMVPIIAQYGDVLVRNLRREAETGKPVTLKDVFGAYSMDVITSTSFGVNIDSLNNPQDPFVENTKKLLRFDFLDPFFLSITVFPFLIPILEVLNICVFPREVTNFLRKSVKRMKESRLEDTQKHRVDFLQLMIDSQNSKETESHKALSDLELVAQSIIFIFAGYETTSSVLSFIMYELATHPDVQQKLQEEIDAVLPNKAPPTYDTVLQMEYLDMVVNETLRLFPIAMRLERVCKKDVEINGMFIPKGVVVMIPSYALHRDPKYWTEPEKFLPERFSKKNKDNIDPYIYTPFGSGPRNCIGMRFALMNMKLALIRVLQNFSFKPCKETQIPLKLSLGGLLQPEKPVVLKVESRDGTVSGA

Take `Cn1cc(Br)c(C(=O)N2CCN(CC(=O)c3ccc(F)cc3)CC2)n1`: the outcome in the series on Rattus norvegicus [1] and in the series with Rattus norvegicus [15] was Active. Besides, the half-life (usually how long it takes for the measured level to halve) is 126 min in series [2] and > 60 min in [16]. In addition, the “inhibition (INH)” value against Cytochrome P450 1A2, at Cytochrome P450 2C19, against Cytochrome P450 3A4, on Cytochrome P450 2D6 and at Cytochrome P450 2C9 was “Not Active” in each case. In the series with Rattus norvegicus [3], the Activity result is “Dose-dependent effect”. Also, in the series on Rattus norvegicus [4], the inhibition in vivo (in general, the relative decrease from the control value, in per cent) at 3 mg/kg was determined as 65%. Besides, the highest concentration (Cmax) (commonly the maximum level reached in the sampled fluid or tissue) in series [5] stood at 1260 ng/mL. For the same molecule, the bioavailability (commonly the share of a dose that reaches the circulation, judged against a reference dose that is usually intravenous) in series [6] was 59%. The Vdss with Rattus norvegicus [7] was found to be 1.5 L/kg. Also, the AUC(0-t) (in general, exposure summed from dosing to a finite time, without extrapolation to infinity) in series [8] is 1450 ng·h/mL. Moreover, in [9], the clearance – broadly, the rate of elimination divided by the concentration – was 66.7 mL/min/kg. For the same molecule, the concentration at 0.75 h in series [10] was determined as 17.8 ng/mL; in [14], 20.8 ng/mL. Moreover, the affinity in [11], expressed as Ki, was 2.12 µM. Moreover, the 50% effect level in the series on Rattus norvegicus [12] (Rattus norvegicus, Sprague-Dawley, po) (ED50) was put at a dose of 0.3 mg/kg. This molecule had an inhibition in vivo at 1 mg/kg with Rattus norvegicus [13] of 75%.
For the molecule `Cn1cc(Br)c(C(=O)N2CCN(CCc3ccc(F)cc3)CC2)n1`, the results for the half-life in [2] and in series [16] were 84 min and 14 min, respectively. Besides, in series [5], the Cmax came out at 48 ng/mL. The bioavailability in [6] was determined as 9%. The Vdss in the series with Rattus norvegicus [7] was determined as 8.1 L/kg. Further, the exposure AUC(0-t) in [8] turned out to be 91 ng·h/mL. The molecule further showed a clearance in [9] of 155 mL/min/kg. This molecule also showed an LBF in the series with Rattus norvegicus [17] of 220%. Besides, the values for the Ki in series [18] and in series [11] were 3.6 nM and 4.15 µM, respectively. Also, the inhibition – broadly, the change of the read-out against control, counted positive when it falls – at 3 µM against hERG (KCNH2) amounted to 79%. This molecule registered an EC50 in the series on Rattus norvegicus [12] of 3 mg/kg. In addition, the concentration at 0.75 h is 8.3 ng/mL in series [19] and 16.8 ng/mL in series [20]. The Kp (as a rule, the ratio of the level in a tissue or fluid to that in plasma or blood) at 0.75 h in series [21] is 2.02.
